From US20240277742A1, “TRANSLATION INHIBITOR WITHOUT OCCUPYING RIBOSOME RESOURCES AS ANTI-TUMOR DRUG” (CHI BIOTECH CO., LTD., priority 2022, published 2024)

What was measured:
A549 cells [1] = assay: Cell apoptosis, Annexin V labelling; format: cell-based; details: A549, 10, 20, 40 μg/mL, increases with concentration
Method: (§1) Cell migration, cell invasion, cell apoptosis, cell colony formation and cytotoxicity experiments were carried out using methods well known to those skilled in the art. […] (3) Cell apoptosis: Cells were fluorescently labeled using Annexin V, and the occurrence of cell apoptosis was tested under a fluorescence microscopy or on a flow cytometer. […] As the concentration of methyl aurintricarboxylate increases (final concentration: 10 μg/mL, 20 μg/mL, 40 μg/mL), the percentage of apoptosis of cancer cells increases. The percentage of apoptosis of cancer cells is positively correlated with the concentration of methyl aurintricarboxylate. Under the same experimental conditions, the onset concentration of aurintricarboxylic acid (0.25-0.5 mg/mL) is 12.5 to 25 times that of methyl aurintricarboxylate.

H1299 cells [2] = assay: Cell apoptosis, Annexin V labelling; format: cell-based; details: H1299, 10, 20, 40 μg/mL, increases with concentration
Method: as §1

HBE cells [3] = assay: Transwell migration assay; format: cell-based, human; details: 20 μg/mL, vs blank control
Method: (§2) Cell migration, cell invasion, cell apoptosis, cell colony formation and cytotoxicity experiments were carried out using methods well known to those skilled in the art. […] (1) Cell migration: The Transwell migration assay was carried out to test the migration ability of HBE, A549 and H1299 cells passing pores before and after treatment. The final concentration of methyl aurintricarboxylate was 20 μg/mL.

A549 cells [4] = assay: Transwell migration assay; format: cell-based; details: A549, 20 μg/mL, vs blank control
Method: as §2

H1299 cells [5] = assay: Transwell migration assay; format: cell-based; details: H1299, 20 μg/mL, vs blank control
Method: as §2

A549 cells [6] = assay: Transwell invasion assay; format: cell-based; details: A549, 20 μg/mL, vs blank control
Method: (§3) Cell migration, cell invasion, cell apoptosis, cell colony formation and cytotoxicity experiments were carried out using methods well known to those skilled in the art. […] (2) Cell invasion: Transwell invasion assay was carried out on HBE, A549 and H1299 cells treated with or without methyl aurintricarboxylate (final concentration 20 μg/mL).

H1299 cells [7] = assay: Transwell invasion assay; format: cell-based; details: H1299, 20 μg/mL, vs blank control
Method: as §3

A549 cells [8] = assay: Agar colony formation assay; format: cell-based; details: A549, 20 μg/mL
Method: as §3, with “(4)” for “(2)”, “colony formation: Agar colony formation” for “invasion: Transwell invasion”, “on” for “on HBE,”, “cells that were untreated and” for “cells”, “with” for “with or without”

H1299 cells [9] = assay: Agar colony formation assay; format: cell-based; details: H1299, 20 μg/mL
Method: as §3, with “(4)” for “(2)”, “colony formation: Agar colony formation” for “invasion: Transwell invasion”, “on” for “on HBE,”, “cells that were untreated and” for “cells”, “with” for “with or without”

HBE cells [10] = assay: Cell apoptosis, Annexin V labelling; format: cell-based, human; details: HBE, 10, 20, 40 μg/mL
Method: as §1

[11] = tested on: ES-2 human ovarian cancer cell line; assay: Apoptosis by Annexin V flow cytometry assay; format: cell-based
Method: (§4) Apoptosis assay was carried out using human normal fibroblasts (primary culture) as normal controls and ES-2 human ovarian cancer cell line as cancer cells. […] (c) Apoptosis was tested by Annexin V flow cytometry assay. In the figure, cells in the area Q1 are non-apoptotic cells, cells in the area Q3 are early apoptotic (the key area for observing apoptosis), and cells in the area Q2 are late apoptotic, including some necrotic cells.

[12] = tested on: human normal fibroblasts (primary culture); assay: Apoptosis by Annexin V flow cytometry assay; format: cell-based; details: 20 μg/mL to 50 μg/mL, 48 h
Method: as §4

[13] = tested on: MHCC97H liver cancer cells; assay: Cell proliferation by CCK-8; format: cell-based; details: 50 μg/mL or above, dose-effect relationship
Method: (§5) The Chinese liver cancer cell lines HCCLM3 and MHCC97H were taken, and cell proliferation was tested with the addition of methyl aurintricarboxylate. […] (b) A methyl aurintricarboxylate solution was added to the culture medium and the final concentrations of methyl aurintricarboxylate reached 10 μg/mL, 20 μg/mL, 50 μg/mL, 80 μg/mL and 120 μg/mL, respectively. The cells were further incubated for […] before sampling. (c) Cell proliferation was tested by CCK-8 (Cell Counting Kit-8).

[14] = tested on: HCCLM3 liver cancer cells; assay: Cell proliferation by CCK-8; format: cell-based; details: HCCLM3, 50 μg/mL or above, dose-effect relationship
Method: as §5

lung cancer A549 cells = details: cisplatin concentration adopted (50 μM), from reported procedure; cited from earlier work
[15] = tested on: human breast cancer cell line MDA-MB-468; assay: Cell proliferation by sulforhodamine B assay; format: cell-based; details: MDA-MB-468, 1 mg/L
Method: The human breast cancer cell line MDA-MB-468 was cultured, 1 mg/L Kasugamycin was then added, and cell proliferation was measured by the sulforhodamine B assay well known in the art (see Qin et al., BAPI promotes breast cancer cell proliferation and metastasis by deubiquitinating KLF5, Nature Communications 6:8471).

H1299 lung cancer cells = assay: Nude-mouse lung cancer xenograft model, tumor diameter; format: in vivo, nude mice; details: gavage once, 10 μg/kg, days 1, 3, 5
Method: Using techniques well known in the art, the tumor inhibition assay of Kasugamycin was carried out on a nude-mouse xenograft model. Nude mice were subcutaneously injected with H1299 lung cancer cells. After the tumors formed, kasugamycin was administered (by gavage) once at a dose of 10 μg/kg. On days 1, 3, and 5, the tumor diameters of the nude mice were measured in vivo.

ribosomes = assay: Sucrose density ultracentrifugation (polysome profiling) of drug-treated cell lysates; format: cell-based; details: methyl aurintricarboxylate 50 μg/mL; Harringtonin 10 μg/mL; Kasugamycin 10 μg/mL; Pateamine A 2 μM; Hippuristanol 1 μM
Method: Example 2 Proof that methyl aurintricarboxylate, Kasugamycin and Hippuristanol are all translation inhibitors without occupying ribosome resources Using methods well known to those skilled in the art, sucrose density ultracentrifugation (polysome profiling) was carried out to measure polysomes. Ultracentrifugation was performed on normal cell lysates and drug-treated cell lysates at 15-50% sucrose density gradient, the solution was pumped out slowly, and OD260 nm (260 nm Optical Density) was measured. In FIG. 2A, the black line, gray solid line and gray dashed line are the experimental curves of normal cells, cells treated with methyl aurintricarboxylate (concentration 50 μg/mL) and cells treated with Harringtonin (concentration 10 μg/mL) respectively. In FIG. 2B, the gray solid line, gray dashed line, and black dotted line are the experimental curves of cells treated with Kasugamycin (concentration 10 μg/mL), Pateamine A (concentration 2 μM), and Hippuristanol (concentration 1 μM), respectively. The peak heights of the curves are related to concentration.

[16] = tested on: cancer cells (A549 and H1299); assay: Cell apoptosis, onset concentration comparison under the same conditions; format: cell-based; details: same experimental conditions as methyl aurintricarboxylate
Method: as §1

[17] = tested on: human breast cancer cell line MDA-MB-468; assay: Transwell invasion assay; format: cell-based; details: MDA-MB-468, 50 nM, 24 h
Method: (§6) The human breast cancer cell line MDA-MB-468 was incubated and 50 nM Hippuristanol was then added. The well-known Transwell migration and invasion assays were carried out. 100,000 cells were added to the Transwell chamber, migration/invasion was carried out for 24 h, and crystal violet staining was performed.

A549 lung cancer cells = assay: Nude-mouse lung cancer xenograft model, tumor diameter; format: in vivo, nude mice; details: gavage, daily dose 10 mg/kg, days 1, 3, 5
Method: Using techniques well known in the art, the tumor inhibition assay of Hippuristanol was carried out on a nude-mouse xenograft model. Nude mice were subcutaneously injected with A549 lung cancer cells. After the tumors formed, Hippuristanol was administered by gavage once at a daily dose of 10 mg/kg. On days 1, 3, and 5, the tumor diameters of the nude mice were measured in vivo.

[18] = tested on: human breast cancer cell line MDA-MB-468; assay: Transwell migration assay; format: cell-based; details: MDA-MB-468, 50 nM, 24 h
Method: as §6

Structure (SMILES): COC(=O)c1cc(/C(=C2/C=CC(=O)C(C(=O)O)=C2)c2ccc(O)c(C(=O)O)c2)ccc1O [methyl aurintricarboxylate, Methyl aurintricarboxylate]
- cell apoptosis (A549 cells [1]): will induce apoptosis
- cell apoptosis (H1299 cells [2]): will induce apoptosis
- cell migration (HBE cells [3]): little effect
- cell migration (A549 cells [4]): significantly inhibits the metastasis ability
- cell migration (H1299 cells [5]): significantly inhibits the metastasis ability
- cell invasion (A549 cells [6]): significantly inhibits the invasion ability
- cell invasion (H1299 cells [7]): significantly inhibits the invasion ability
- number of colonies/1000 cells (A549 cells [8]): significantly reduced
- number of colonies/1000 cells (H1299 cells [9]): significantly reduced
- cell apoptosis (HBE cells [10]): will not induce apoptosis
- Percentage of late apoptotic and necrotic cells ([11]; 10 μg/mL, 48 h): 29.1%
- late apoptotic+necrotic cells ([11]; 20 μg/mL or above, no obvious dose-effect relationship): do not increase significantly
- Percentage of late apoptotic and necrotic cells ([11]; 20 μg/mL, 48 h): 17.2%
- Percentage of late apoptotic and necrotic cells ([11]; 50 μg/mL, 48 h): 23.0%
- Percentage of late apoptotic and necrotic cells ([11]; 120 μg/mL, 48 h): 22.6%
- apoptosis ([11]; ES-2, 5 μg/mL, 48 h): significant effect on promoting apoptosis
- early apoptosis ([11]; ES-2, 20 μg/mL, 48 h): 67.6%
- apoptosis ([11]; ES-2, concentrations higher than 20 μg/mL, 48 h): almost all cells are completely apoptotic
- effect on normal cell apoptosis [12]: basically no effect
- inhibition of cell proliferation [13]: obvious inhibitory effect
- inhibition of cell proliferation [14]: obvious inhibitory effect

Structure (SMILES): N.N.[Cl][Pt][Cl] [cisplatin]
- inhibition of lung cancer A549 cells (lung cancer A549 cells): 80-90%

Structure (SMILES): C[C@H]1O[C@H](O[C@H]2[C@H](O)[C@@H](O)[C@@H](O)[C@H](O)[C@@H]2O)[C@@H](N)C[C@@H]1NC(=N)C(=O)O [Kasugamycin]
- cell proliferation [15]: slows down significantly from day 4
- change in tumor diameter (H1299 lung cancer cells): tumor shrink significantly
- polysome profile (OD260 nm peaks of 40S, 60S, 1× and polysomes) (ribosomes): peaks of 40S and 60S dominate

Structure (SMILES): O=C(O)C1=CC(=C(c2ccc(O)c(C(=O)O)c2)c2ccc(O)c(C(=O)O)c2)C=CC1=O [aurintricarboxylic acid]
- onset concentration (apoptosis) [16]: 0.25 to 0.5 mg/mL

Structure (SMILES): COC(=O)C[C@](O)(CCC(C)(C)O)C(=O)O[C@@H]1C(OC)=C[C@]23CCCN2CCc2cc4c(cc2[C@H]13)OCO4 [Harringtonin]
- polysome profile (OD260 nm peaks of 40S, 60S, 1× and polysomes) (ribosomes): peak of 1× ribosomes is very high

Structure (SMILES): CC(/C=C/C(C)=C/[C@@H]1Cc2nc(cs2)[C@@H](C)C[C@@H](N)CC(=O)O[C@@H](C)C/C(C)=C/C=C\C(=O)O1)=C\CN(C)C [Pateamine A]
- polysome profile (OD260 nm peaks of 40S, 60S, 1× and polysomes) (ribosomes): peaks of 40S and 60S dominate

Structure (SMILES): C[C@H]1C[C@@]2(O[C@H]3C[C@H]4[C@@H]5CC[C@H]6C[C@H](O)CC[C@]6(C)[C@H]5[C@@H](O)C[C@]4(C)[C@H]3[C@@]2(C)O)OC1(C)C [Hippuristanol]
- cell invasion [17]: effectively reduce
- change in tumor diameter (A549 lung cancer cells): tumor shrink significantly
- polysome profile (OD260 nm peaks of 40S, 60S, 1× and polysomes) (ribosomes): peaks of 40S and 60S dominate
- cell migration [18]: effectively reduce
